Results on two compounds are retold here after US20240130957A1, “EXTRACTS OF ISOCHRYSIS SPECIES/TISOCHRYSIS SPECIES” (SYMRISE AG, priority 2020, published 2024).

SMILES strings stand for the structures.

One data set has as its system skin. The settings on record: similar to the effect seen with dihydroxyacetone; cited from earlier work.
In another data set the test system is UVA-induced ROS. The data set can be described thus: Reduction of UVA-induced ROS in organ culture of human skin (DCFH-DA). Type of data set: cell-based. As to the method:
Organ culture of human skin was performed starting from a skin sample, exciding pieces of approximately 8×3 mm (ø×thickness). Skin samples (6 per treatment) were cultured in an air-liquid interface in a perforated ring of stainless steel in contact with culture medium (modified Williams' E medium).
At start of the skin culture, in parallel to untreated, the formulations 14.1 to 14.3 and 100% tocopherol acetate were applied topically on the skin samples and afterwards they were cultivated overnight. On the next day, the topical treatments were renewed for 1 hour. In parallel, culture medium with 100 μM of 2′,7′-dichlorofluorescin diacetate (DCFH-DA, Sigma #D6883) was prepared. After 1 hour of incubation of the skin samples, the culture medium was replaced by the medium containing DCFH-DA and the skin samples were incubated for 30 minutes. Then, the skin samples were washed in PBS buffer and UVA irradiation (lamp: Bio Sun by Vilber Lourmat, 60 J/cm2) was performed. Afterwards, the skin samples were harvested, cryo-fixed and cut at the cryostat for image acquisition and analysis. The image acquisition was performed using Olympus BX51 microscope and Olympus DP70 camera. Two skin sections for each skin sample were cut and the related images were acquired and analysed. Doing so, 12 images were obtained for each formulation for analysis. Image analysis was performed within the dermis area selected from the upper part by following the perimeter of the basal lamina to the deep dermis. The obtained values from were normalized upon the dimension of the selected area.

For the compound `O=C(CO)[C@H](O)CO` [Erythrulose, D-Erythrulose], the “production of free radicals” value in the data set with skin was “increase production of free radicals”.
As for `CC(=O)Oc1c(C)c(C)c2c(c1C)CCC(C)(CCC[C@H](C)CCC[C@H](C)CCCC(C)C)O2` (stereo partly shown) [Tocopherol acetate], the “reduction of UVA-induced ROS vs untreated UVA-irradiated” value in the data set with UVA-induced ROS (100% tocopherol acetate, topical) was determined as 73%. Also, in the data set with UVA-induced ROS (UVA 60 J/cm2), the “Modulation vs untreated + UVA” value is reported as −73%. Also, the “Mean ROS score” value with UVA-induced ROS (UVA 60 J/cm2, topical overnight and renewed 1 hour, untreated no UVA 0.015, untreated + UVA 0.573) amounted to 0.157.
